Read-outs that look alike come from different tables or passages of the source.
Tests used:
[1] = system: MV4-11 human acute myeloid leukemia cell with FLT3-ITD mutation; assay: MV4-11 cell proliferation assay (CellTiter 96); type: cell-based; details: MV4-11 cells, 72 hours treatment, CellTiter96, read-out: anti-proliferation activity MV4-11 (FLT3-ITD), IC50 ranking
Summary of the method: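 Cells seeded at 6500/well in IMDM with 10% heat-inactivated FBS, left overnight at 37 °C, 5% CO2, then exposed to increasing compound concentrations for 72 h. Viability read as absorbance at 490 nm after 2–4 h with CellTiter96 AQueous One reagent.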

[2] = system: Molm-14 human acute myeloid leukemia cell with FLT3-ITD mutation; assay: Molm-14 cell proliferation assay (CellTiter 96); type: cell-based; details: Molm-14 cells, 72 hours treatment, CellTiter96, read-out: anti-proliferation activity Molm-14 (FLT3-ITD), IC50 ranking
Summary of the method: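 Molm-14 (FLT3-ITD AML) cells in RPMI 1640 with 10% heat-inactivated FBS were seeded at 25000 cells/well, incubated overnight at 37° C, 5% CO2, then treated with increasing compound concentrations for 72 hours. Viability was read as absorbance at 490 nm after 2˜4 hours with CellTiter96 AQueous One reagent.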

[3] = system: THP-1 human acute monocytic leukemia cell with NRAS G12D mutation; assay: THP-1 cell proliferation assay (counter screen); type: cell-based; details: THP-1 cells, 72 hours treatment, CellTiter96, read-out: anti-proliferation activity THP-1 NRAS N12D, IC50 ranking
Summary of the method: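 THP-1 cells (NRAS G12D, growth independent of class III RTK signaling) seeded at 5000 cells/well overnight, then exposed to increasing compound concentrations for 72 h at 37° C, 5% CO2. Viability read by CellTiter96 AQueous One reagent (2–4 h) as absorbance at 490 nm.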

[4] = system: A375 melanoma cell with BRAF V600E mutation; assay: A375 cell proliferation assay (counter screen); type: cell-based, human; details: 72 hours treatment, CellTiter96, read-out: anti-proliferation activity A375 BRAF V600E, IC50 ranking
Summary of the method: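 A375 cells (BRAF V600E) seeded at 2000 cells/well in DMEM with 10% FBS, settled overnight at 37° C, 5% CO2, then exposed to increasing compound concentrations for 72 hours. Viability read by MTS-type CellTiter96 AQueous reagent, absorbance at 490 nm after 2–4 hours.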

[5] = system: HCC827 NSCLC cell with EGFR exon 19 deletion mutation; assay: HCC827 cell proliferation assay (counter screen); type: cell-based, human; details: HCC827 cells, 72 hours treatment, CellTiter96, read-out: anti-proliferation activity HCC827 EGFR Exon19 del, IC50 ranking
Summary of the method: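 HCC827 cells (EGFR exon 19 deletion) were seeded at 8000 cells/well in RPMI1640 with 10% FBS, then exposed to increasing compound concentrations for 72 h at 37 °C. Viability was read by CellTiter96 AQueous One (MTS), absorbance 490 nm after 2–4 h.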

[6] = system: phosphorylation of FLT3 and its down-stream effector STAT5; assay: Western blotting of p-FLT3 and p-STAT5 in MV4-11 cells; type: cell-based; details: Homo sapiens; at 30 nM treatment, 3 hours, FLT3-ITD positive MV4-11 leukemia cells; read-out: inhibition activity against phosphorylation of FLT3 and its down-stream effector STAT5
Protocol: The potent compounds of formula (I) in EXAMPLE 2 were evaluated, by western blotting assay, for their cellular potencies against phosphorylation of FLT3 and its down-stream effector STAT5 in MV4-11 leukemia cell line with constitutive activation of FLT3 signaling. For western blotting experiments, MV4-11 cells were cultured in IMDM medium containing 0.1% FBS overnight. On the assay day, three million cells were treated with or without compounds for 3 hours in 15 mL tubes. Then, the whole cell lysates were harvested, following extraction by adding 2×SDS Sample Buffer and boiling on hot plate at 105° C. for 15 minutes. The resulting cell lysates were separated by SDS-PAGE electrophoresis and transferred to PVDF membrane. Protein expression was detected using immunoblot with corresponding primary antibody and secondary antibody following the standard procedures. Antibody against p-FLT3 (Tyr-591), anti-rabbit IgG HRP-linked secondary antibody, and anti-mouse IgG HRP-linked secondary antibody were purchased from Cell Signaling Technology. Antibody against p-STAT5 (Tyr-694) was purchased from BD biosciences. Antibody against actin was purchased from R&D system. […] Band intensities of western blot were also quantified by ChemiDoc™ MP Imaging System. Relative intensities of bandscorresponding to drug treatments at a single concentration (30 nM) were compared to the DMSO control group. The percentage (%) inhibition at each drug concentration was calculated using the formula: Percentage(%)inhibition=(1−Relative intensity)×100.

[7] = Homo sapiens, A-375, A375 cells

Row | Compound | IC50 ([1]; Homo sapiens, MV4-11, 72 h) | IC50 ([2]; Homo sapiens) | IC50 [1] | IC50 [2] | IC50 ([3]; Homo sapiens) | IC50 [4, 7] | IC50 ([5]; Homo sapiens) | inhibition at 0.03 µM [6] | IC50 [3] | IC50 ([4]; A375 cells) | IC50 [5]
1 | Cn1ncc2ccc(-c3n[nH]c4c3Cc3sc(-c5ccc(CN6CCC6)cc5)cc3-4)cc21 [Compound 103, 6-(4-(azetidin-1-ylmethyl)phenyl)-3-(1-methyl-1H-indazol-6-yl)-1,4-dihydro-thieno[2′,3′:4,5]cyclopenta [1,2-c]pyrazole] | < 30 nM | 30 to 100 nM |  |  | > 10000 nM | > 10000 nM | > 10000 nM | > 50% |  |  | 
2 | Cn1ncc2ccc(-c3n[nH]c4c3Cc3sc(-c5ccc(CCN6CCOCC6)cc5)cc3-4)cc21 [Compound 22, 4-(4-(3-(1-methyl-1H-indazol-6-yl)-1,4-dihydro-thieno[2′,3′:4,5]cyclopenta [1,2-c]pyrazol-6-yl)phenethyl)morpholine] | < 30 nM | 30 to 100 nM |  |  | > 10000 nM | > 10000 nM | > 10000 nM | > 50% |  |  | 
3 | Cn1ncc2ccc(-c3n[nH]c4c3Cc3sc(-c5cc(F)c(CN6CCOCC6)c(F)c5)cc3-4)cc21 [Compound 53, 4-(2,6-difluoro-4-(3-(1-methyl-1H-indazol-6-yl)-1,4-dihydrothieno [2′,3′:4,5]cyclopenta [1,2-c]pyrazol-6-yl)benzyl)morpholine] | 30 to 100 nM | 100 to 300 nM |  |  | > 10000 nM | > 10000 nM | > 10000 nM | > 50% |  |  | 
4 | Cn1ncc2ccc(-c3n[nH]c4c3Cc3sc(-c5ccc(CN6CCCOCC6)cc5)cc3-4)cc21 [Compound 97, 4-(4-(3-(1-methyl-1H-indazol-6-yl)-1,4-dihydro-thieno[2′,3′:4,5]cyclopenta [1,2-c]pyrazol-6-yl)benzyl)-1,4-oxazepane] | < 30 nM | < 30 nM |  |  | 1000 to 10000 nM | 1000 to 10000 nM | > 10000 nM | > 50% |  |  | 
5 | C[C@@H]1COCCN1Cc1ccc(-c2cc3c(s2)Cc2c(-c4ccc5cnn(C)c5c4)n[nH]c2-3)cc1 [Compound 74, (R)-3-methyl-4-(4-(3-(1-methyl-1H-indazol-6-yl)-1,4-dihydrothieno [2′,3′:4,5]cyclopenta [1,2-c]pyrazol-6-yl)benzyl)morpholine] | < 30 nM | 30 to 100 nM |  |  | > 10000 nM | > 10000 nM | > 10000 nM | > 50% |  |  | 
6 | Cc1cc(-c2cc3c(s2)Cc2c(-c4ccc5cnn(C)c5c4)n[nH]c2-3)ccn1 [Compound 17, 3-(1-methyl-1H-indazol-6-yl)-6-(2-methylpyridin-4-yl)-1,4-dihydrothieno [2′,3′:4,5]cyclopenta[1,2-c] pyrazole] | < 30 nM | 30 to 100 nM |  |  | > 10000 nM | > 10000 nM | > 10000 nM | > 50% |  |  | 
7 | Cc1ccc(-c2cc3c(s2)Cc2c(-c4ccc5cnn(C)c5c4)n[nH]c2-3)cn1 [Compound 33, 3-(1-methyl-1H-indazol-6-yl)-6-(6-methylpyridin-3-yl)-1,4-dihydrothieno [2′,3′:4,5]cyclopenta [1,2-c]pyrazole] |  |  | 30 to 100 nM | 30 to 100 nM |  |  |  | > 50% | > 10000 nM | > 10000 nM | > 10000 nM
8 | COc1cc(-c2cc3c(s2)Cc2c(-c4ccc5cnn(C)c5c4)n[nH]c2-3)ccc1CN1CCOCC1 [Compound 24, 4-(2-methoxy-4-(3-(1-methyl-1H-indazol-6-yl)-1,4-dihydrothieno[2′,3′:4,5]cyclopenta[1,2-c]pyrazol-6-yl)benzyl)morpholine] | < 30 nM | 30 to 100 nM |  |  | > 10000 nM | > 10000 nM | > 10000 nM | > 50% |  |  | 
9 | COc1cc(-c2cc3c(s2)Cc2c(-c4ccc5cnn(C)c5c4)n[nH]c2-3)ccc1C(=O)N1CCOCC1 [Compound 43, (2-methoxy-4-(3-(1-methyl-1H-indazol-6-yl)-1,4-dihydrothieno [2′,3′:4,5]cyclopenta [1,2-c]pyrazol-6-yl)phenyl)(morpholino) methanone] | 30 to 100 nM | 30 to 100 nM |  |  | > 10000 nM | > 10000 nM | > 10000 nM | > 50% |  |  | 

More lines, main results first:

Row | IC50 ([1]; Homo sapiens, MV4-11, 72 h) | IC50 ([2]; Homo sapiens) | IC50 [1] | IC50 [2] | Compound | IC50 ([3]; Homo sapiens) | IC50 [4, 7] | IC50 ([5]; Homo sapiens) | inhibition at 0.03 µM [6] | IC50 [3] | IC50 ([4]; A375 cells) | IC50 [5]
10 | < 30 nM | 30 to 100 nM |  |  | Cn1ncc2ccc(-c3n[nH]c4c3Cc3sc(-c5cccc(C(=O)N6CCOCC6)c5)cc3-4)cc21 [Compound 37, (3-(3-(1-methyl-1H-indazol-6-yl)-1,4-dihydro-thieno[2′,3′:4,5]cyclopenta [1,2-c]pyrazol-6-yl)phenyl)(morpholino) methanone] | > 10000 nM | > 10000 nM | > 10000 nM | > 50% |  |  | 
11 | < 30 nM | 30 to 100 nM |  |  | COc1cc(CN2CCOCC2)ccc1-c1cc2c(s1)Cc1c(-c3ccc4cnn(C)c4c3)n[nH]c1-2 [Compound 29, 4-(3-methoxy-4-(3-(1-methyl-1H-indazol-6-yl)-1,4-dihydrothieno [2′,3′:4,5]cyclopenta[1,2-c]pyrazol-6-yl)benzyl) morpholine] | > 10000 nM | > 10000 nM | > 10000 nM | > 50% |  |  | 
12 | < 30 nM | 30 to 100 nM |  |  | Cn1ncc2ccc(-c3n[nH]c4c3Cc3sc(-c5ccc(OCCN6CCOCC6)cc5)cc3-4)cc21 [Compound 69, 4-(2-(4-(3-(1-methyl-1H-indazol-6-yl)-1,4-dihydro-thieno[2′,3′:4,5]cyclopenta [1,2-c]pyrazol-6-yl)phenoxy)ethyl)morpholine] | > 10000 nM | > 10000 nM | > 10000 nM | > 50% |  |  | 
13 | < 30 nM | < 30 nM |  |  | Cn1ncc2ccc(-c3n[nH]c4c3Cc3sc(-c5ccc(CN6CCNC(=O)C6)cc5)cc3-4)cc21 [Compound 63, 4-(4-(3-(1-methyl-1H-indazol-6-yl)-1,4-dihydro-thieno[2′,3′:4,5]cyclopenta [1,2-c]pyrazol-6-yl)benzyl)piperazin-2-one] | > 10000 nM | > 10000 nM | > 10000 nM | > 50% |  |  | 
14 | < 30 nM | < 30 nM |  |  | C[C@@H]1CN(Cc2ccc(-c3cc4c(s3)Cc3c(-c5ccc6cn[nH]c6c5)n[nH]c3-4)cn2)C[C@H](C)O1 [Compound 16, (2R,6S)-4-((5-(3-(1H-indazol-6-yl)-1,4-dihydro-thieno[2′,3′:4,5]cyclopenta [1,2-c]pyrazol-6-yl)pyridin-2-yl)methyl)-2,6-dimethylmorpholine] | > 10000 nM | > 10000 nM | > 10000 nM | > 50% |  |  | 

From patent US12448394B2, “Heterocyclic pyrazole derivatives as type III receptor tyrosine kinase inhibitors” (DEVELOPMENT CENTER FOR BIOTECHNOLOGY, priority 2019, dated 2025)
